Publication PMC5843753, “Comparative analysis of plant isochorismate synthases reveals structural mechanisms underlying their distinct biochemical properties” (Bioscience Reports, 2018)

Experiments:
OsICS = target: T1, OsICS (Oryza sativa, UniProt A0A286T796); assay: in planta SA accumulation with co-expressed IPL; format: cell-based; settings: endogenous chorismate, N. benthamiana leaves, transit peptide replaced
T1 construct: own transit peptide replaced by that of AtICS1 or of tobacco Rubisco small subunit; N. benthamiana leaves, P. fluorescens IPL PmsB as coupling enzyme
T1 sequence (A0A286T796 46-581): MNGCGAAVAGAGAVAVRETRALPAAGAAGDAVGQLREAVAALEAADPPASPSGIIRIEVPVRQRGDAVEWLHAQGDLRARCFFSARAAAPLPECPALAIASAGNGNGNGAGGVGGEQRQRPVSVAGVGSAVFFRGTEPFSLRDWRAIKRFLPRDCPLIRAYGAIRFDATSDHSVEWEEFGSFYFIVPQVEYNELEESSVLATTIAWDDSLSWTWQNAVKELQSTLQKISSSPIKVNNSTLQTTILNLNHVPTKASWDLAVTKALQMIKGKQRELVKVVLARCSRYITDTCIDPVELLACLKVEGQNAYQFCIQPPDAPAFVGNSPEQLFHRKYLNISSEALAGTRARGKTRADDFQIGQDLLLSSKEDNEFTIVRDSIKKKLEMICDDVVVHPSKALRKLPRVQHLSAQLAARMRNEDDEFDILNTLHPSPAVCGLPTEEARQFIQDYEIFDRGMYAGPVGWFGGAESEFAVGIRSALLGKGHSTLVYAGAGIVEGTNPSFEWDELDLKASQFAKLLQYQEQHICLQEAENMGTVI

EntC = target: T2, EntC (Escherichia coli, UniProt P0AEJ2); assay: isochorismate converted into SA, SA measured; format: biochemical; settings: 1 mM barium chorismate, 10 mM MgCl2, pH 7.5, 30 C, 1 h; crude E. coli fraction; linearity not confirmed for EntC in E. coli
T2 construct: N-terminal His6 (pET28a), E. coli SHuffle T7, crude desalted protein fraction; also with tobacco Rubisco small subunit transit peptide and 3xFLAG in N. benthamiana
T2 sequence (P0AEJ2 1-391): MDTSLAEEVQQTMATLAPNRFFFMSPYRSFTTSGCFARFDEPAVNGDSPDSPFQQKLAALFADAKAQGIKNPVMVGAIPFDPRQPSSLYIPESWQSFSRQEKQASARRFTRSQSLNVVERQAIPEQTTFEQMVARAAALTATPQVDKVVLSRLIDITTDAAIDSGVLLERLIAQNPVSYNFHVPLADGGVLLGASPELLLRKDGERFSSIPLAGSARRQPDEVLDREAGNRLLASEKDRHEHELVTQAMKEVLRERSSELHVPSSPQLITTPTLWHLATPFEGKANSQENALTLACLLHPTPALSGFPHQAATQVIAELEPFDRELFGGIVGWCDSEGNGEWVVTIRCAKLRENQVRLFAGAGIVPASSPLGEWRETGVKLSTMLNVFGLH

AtICS1 [1] = target: T3, AtICS1 (Arabidopsis thaliana, UniProt Q9S7H8); assay: isochorismate converted into SA, SA measured; format: biochemical; settings: 1 mM barium chorismate, 10 mM MgCl2, pH 7.5, 30 C, 1 h; crude E. coli fraction
T3 construct: gene ICS1; putative chloroplast transit peptide removed, N-terminal His6 (pET28a), E. coli SHuffle T7, crude desalted protein fraction; also C-terminal 3xFLAG in N. benthamiana leaves

NtICS = target: T4, NtICS (Nicotiana tabacum, UniProt A0A286T848); assay: in planta SA accumulation with co-expressed IPL; format: cell-based; settings: endogenous chorismate, N. benthamiana leaves, ICS to IPL 1:19
T4 sequence (A0A286T848 48-584): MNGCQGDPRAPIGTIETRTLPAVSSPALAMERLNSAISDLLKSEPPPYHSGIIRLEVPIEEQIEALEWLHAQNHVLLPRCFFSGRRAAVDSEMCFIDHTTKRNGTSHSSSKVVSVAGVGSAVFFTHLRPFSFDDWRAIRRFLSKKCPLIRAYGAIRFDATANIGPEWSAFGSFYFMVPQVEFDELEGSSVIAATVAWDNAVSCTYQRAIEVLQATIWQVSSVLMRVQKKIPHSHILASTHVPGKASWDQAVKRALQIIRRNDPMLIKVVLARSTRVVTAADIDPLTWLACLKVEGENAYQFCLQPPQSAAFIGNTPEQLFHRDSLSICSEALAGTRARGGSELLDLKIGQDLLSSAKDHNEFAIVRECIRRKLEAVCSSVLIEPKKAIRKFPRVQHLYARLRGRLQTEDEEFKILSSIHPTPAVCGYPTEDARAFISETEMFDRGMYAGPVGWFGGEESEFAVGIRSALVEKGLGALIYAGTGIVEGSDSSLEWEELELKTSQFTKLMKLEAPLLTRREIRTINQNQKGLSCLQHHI

NbICS = NbICS (Nicotiana benthamiana, UniProt A0A286T8R2); assay: in planta SA accumulation with co-expressed IPL; format: cell-based; settings: endogenous chorismate, N. benthamiana leaves, ICS to IPL 1:19
AtICS1 [2] = target: T5, AtICS1 (Arabidopsis thaliana, UniProt Q9S7H8, T531A); assay: isochorismate converted into SA, SA measured; format: biochemical; settings: 1 mM barium chorismate, 10 mM MgCl2, pH 7.5, 30 C, 1 h; crude E. coli fraction
T5 construct: gene ICS1; putative chloroplast transit peptide removed, N-terminal His6 (pET28a), E. coli SHuffle T7, crude desalted protein fraction; also C-terminal 3xFLAG in N. benthamiana leaves
T5 sequence (Q9S7H8 46-569 T531A): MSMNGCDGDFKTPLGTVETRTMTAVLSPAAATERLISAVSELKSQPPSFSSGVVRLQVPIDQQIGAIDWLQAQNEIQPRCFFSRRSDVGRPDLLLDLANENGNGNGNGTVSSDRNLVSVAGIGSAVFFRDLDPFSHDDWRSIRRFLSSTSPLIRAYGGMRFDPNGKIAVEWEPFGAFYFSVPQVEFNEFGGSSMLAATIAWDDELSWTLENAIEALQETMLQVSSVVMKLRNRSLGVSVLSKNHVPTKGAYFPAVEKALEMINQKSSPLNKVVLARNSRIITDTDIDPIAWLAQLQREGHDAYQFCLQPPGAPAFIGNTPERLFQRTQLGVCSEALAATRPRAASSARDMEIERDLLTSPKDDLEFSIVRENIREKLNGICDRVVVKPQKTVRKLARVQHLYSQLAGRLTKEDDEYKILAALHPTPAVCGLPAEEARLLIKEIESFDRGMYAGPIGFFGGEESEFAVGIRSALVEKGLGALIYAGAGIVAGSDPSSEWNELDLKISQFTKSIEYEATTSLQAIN

T3 sequence (Q9S7H8 46-569): as the sequence (Q9S7H8 46-569 T531A) above, with A486T counted along it
NbICS, sequence (A0A286T8R2 53-590): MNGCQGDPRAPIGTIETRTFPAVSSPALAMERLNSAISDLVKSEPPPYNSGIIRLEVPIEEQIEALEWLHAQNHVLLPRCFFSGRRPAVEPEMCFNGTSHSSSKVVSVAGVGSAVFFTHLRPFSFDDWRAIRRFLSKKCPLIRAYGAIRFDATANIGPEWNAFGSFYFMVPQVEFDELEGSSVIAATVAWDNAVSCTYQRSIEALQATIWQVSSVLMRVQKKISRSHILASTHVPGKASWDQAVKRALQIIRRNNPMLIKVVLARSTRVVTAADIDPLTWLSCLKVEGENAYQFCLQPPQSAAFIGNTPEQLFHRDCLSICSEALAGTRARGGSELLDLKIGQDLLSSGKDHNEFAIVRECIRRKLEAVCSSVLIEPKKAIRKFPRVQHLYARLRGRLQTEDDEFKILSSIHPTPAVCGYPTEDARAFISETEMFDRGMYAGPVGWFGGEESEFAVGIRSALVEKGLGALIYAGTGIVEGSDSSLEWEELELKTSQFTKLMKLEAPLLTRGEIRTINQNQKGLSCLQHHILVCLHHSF

For C=C(O[C@@H]1C=C(C(=O)O)C=C[C@H]1O)C(=O)O [chorismate], the SA level (OsICS) was “OsICS with TP^AtICS1 or TP^SS showed low but significant levels of ICS activity in planta”, the ICS activity (EntC) was “AtICS1 and EntC showed activity that was much higher than the empty vector control” and the ICS activity (AtICS1 [1]) was “AtICS1 and EntC showed activity that was much higher than the empty vector control”. The SA level (NtICS) was “expression of NtICS or NbICS with IPL resulted in significant increases in the levels of SA”, the SA level (NbICS) was “expression of NtICS or NbICS with IPL resulted in significant increases in the levels of SA” and the ICS activity (AtICS1 [2]) was “The T531A mutant showed the lowest activity compared with the S537T and I550A mutants”.
